Results: patent US20220378794A1 (Sinopia Biosciences, Inc., priority 2019, published 2022)

Tested on: chronic low-dose MPTP lesioned non-human primate model of cognitive impairment
Conditions: levodopa 5-20 mg/kg (groups 6-8); in particular shorter delay periods DP1 and DP2; vs vehicle

Structure (SMILES): N[C@@H](Cc1ccc(O)c(O)c1)C(=O)O [levodopa]
- accuracy of VDR test: trend toward completing the VDR test with lower accuracy
